Test results as given in patent publication US12611415B2, “Methods and compounds for treatment of metabolic disease” (Monash University, priority 2019, dated 2026).
“Also recorded” adds a separate entry of the source.

Legend:
Assay type in all cases: in vivo, mouse
[1] = Systemic (plasma) exposure of celecoxib after oral gavage; settings: oral gavage 29 mg/kg in lipid based formulation (Compound I-1 equivalent to 8.3 mg/kg celecoxib), fasted mice
Protocol: To evaluate the systemic exposure of celecoxib and celecoxib prodrug Compound I-1, 29 mg/kg celecoxib or celecoxib prodrug (equivalent to 8.3 mg/kg celecoxib) were administered in a self-emulsifying lipid-based formulation consisting of oleic acid (Sigma Aldrich, Australia)/Cremophor RH40 (Sigma Aldrich, Australia)/ethanol (40:52.6:7.4, w/w/w). Drug and prodrug concentrations in the formulations were confirmed using HPLC-MS/MS as described below.
In addition to evaluating lymph uptake of celecoxib and celecoxib prodrug, a pharmacokinetic dose-determining study was conducted to determine a dose of celecoxib and celecoxib prodrug that produce higher lymphatic uptake but lower systemic plasma celecoxib exposure (i.e. lower plasma concentrations over time) after administration of the prodrug. […]
For HPLC-MS/MS analysis of celecoxib in plasma after dosing celecoxib or celecoxib prodrug Compound I-1, 200 μL acetonitrile was added to 20 μL samples of plasma and 5 μL of a 1 μg/mL solution of internal standard (5,5-diethyl-1,3-diphenyl-2-iminobarbituric acid) in acetonitrile. Samples were vortexed for 30 seconds and centrifuged at 4,500 g for 5 min, and 80 μL supernatant was analyzed for celecoxib concentration by HPLC-MS. […]

[2] = tested on: mice reintroduced to a high-fat diet; test: HFD rechallenge study (FIG. 9); settings: Cele-pro (CP30)
Source text: Details regarding treatment times and controls are shown in panel (a). Panels b-e show whole mount immunofluorescence images of the mesenteric afferent lymph vessels and cell nuclei in VAT of several mouse groups. Panels f-i show lymph “leakage” into surrounding VAT due to HFD-induced remodelling of the mesenteric lymphatics, as measured by intramucosal injection of Evans blue dye and lymphangiography. (j-m) n=5 (CFD), 5 (HFD), 6 (HFD rechallenge-Cele-pro (CP30)) and 5-7 (HFD rechallenge-CFD switch). (a-d) n=5 (CFD), 6 (HFD), 8 (HFD rechallenge-Cele-Pro (CP30)) and 7 (HFD rechallenge-CFD switch).

[3] = tested on: mice with chronic HFD-induced obesity; test: Chronic HFD-induced obesity model, Compound I-1 versus CFD switch (FIG. 8)
Source text: Details regarding treatment times and controls are shown in panel (a). Panels b-e show lymph “leakage” into surrounding VAT due to HFD-induced remodelling of the mesenteric lymphatics, as measured by intramucosal injection of Evans blue dye and lymphangiography. (f-g) n=2 (CFD), 7 (HFD), 8 (Cele-pro (CP30)) and 5 (CFD switch).

[4] = tested on: mice with HFD-induced obesity; test: Dose comparison study of Compound I-1 and celecoxib in HFD mice (FIG. 7)
Source text: Timelines and treatment groups are shown in panel a. (b-c) n=8 (CFD), 8 (CP90), 4, (CP30), 7 (CP10), 4 (Cele30), 5 (Cele 10), 6 (Cele3) and 4 (HFD). (c-d) n=7 (CFD), 7 (CP90), 5, (CP30), 7 (CP10), 5 (Cele30), 7 (Cele 10), 6 (Cele3) and 7 (HFD). (e-f) n=12 (CFD), 8 (CP90), 6 (CP30), 7 (CP10), 7 (Cele30), 8 (Cele 10), and 6 (Cele3), 8 (HFD). (g-h) n=10 (CFD), 8 (CP90), 6 (CP30), 7 (CP10), 6 (Cele30), 8 (Cele 10), and 7 (Cele3), 11 (HFD). (i-j) n=4 (CFD), 7 (CP 90), 7 (CP 10), 7 (Cele 10) and 6 (Cele 3). Statistical differences from one-way ANOVA, compared to CFD (baseline). *p<0.05, **p<0.01, ***p<0.005, ****p<0.001.

[5] = chronic HFD-induced obesity models, Cele-pro (CP30)
[6] = Compound I-1 at doses as low as 10 mg/kg (~3 mg/kg celecoxib), ~10-fold lower dose relative to celecoxib
[7] = various doses of Compound I-1 versus higher corresponding doses of celecoxib

## CCCCCCCCCCCCCCCC(=O)OCC(COC(=O)CCCCCCCCCCCCCCC)OC(=O)CCCCCCCCC(=O)Oc1cc(C)cc(C)c1C(C)(C)CC(=O)NS(=O)(=O)c1ccc(-n2nc(C(F)(F)F)cc2-c2ccc(C)cc2)cc1 [Compound I-1]
[1]
  plasma concentrations of celecoxib, compared to an equal mass of the parent drug: lower
[2]
  beneficial effects after reintroducing the mice to a high-fat diet (HFD rechallenge): persist
[3]; Cele-pro (CP30) versus CFD switch
  effects on mice on a high-fat diet relative to animals switched to a chow-fat diet: comparable
[3]; [5]
  VAT inflammation: reverses
  insulin resistance: reverses
  lymphatic dysfunction: reverses
[4]; [6]
  VAT lymph leakage: superior; also recorded: reverses, more effectively
  restoration of glycaemic control: superior
  reversal of VAT lymphangiogenesis (lymph vessel branching): superior; also recorded: reverses, more effectively
[4]; compared with a 3-fold higher dose of celecoxib
  reducing fasting plasma triglycerides: superior
[4]; [7]
  HFD-induced obesity, weight: reverses, more effectively
  changes to lymph composition: reverses, more effectively
  insulin resistance: reverses, more effectively
  oral glucose tolerance: reverses, more effectively
